{
  "source": "paper PMC9737734",
  "about": "“Phytochemical investigation of Ludwigia adscendens subsp. diffusa aerial parts in context of its biological activity” (BMC Chemistry, 2022)",
  "system": "PC-3 cells (human prostate cancer cell line)",
  "test": "Cytotoxic activity, MTT cell viability assay against PC-3 cell line",
  "type": "cell-based",
  "conditions": "read-out: Cytotoxcity activity IC50",
  "description": "Cytotoxic activity of L. adscendens aerial part fractions were tested in vitro using MTT cell viability assay as previously described. Briefly, in each well plate 100 µL of fresh culture RPMI 1640 medium without phenol red then 10 µL of the 12 mM MTT stock solution (5 mg of MTT in 1 mL of PBS) were added to each well. An 85 µL aliquot of the incubated media was replaced by 50 µL of DMSO and incubated at 37 °C for 10 min. The optical density was measured at 590 nm with the microplate reader to determine the number of viable cells and the percentage of viability was calculated as the percentage of cell survival was calculated as follows: Surviving fraction=O.D.treated cells/O.D.control cells∗100",
  "data": [
    {"smiles": "COc1cccc2c1C(=O)c1c(O)c3c(c(O)c1C2=O)C[C@@](O)(C(=O)CO)C[C@@H]3O[C@H]1C[C@H](N)[C@H](O)[C@H](C)O1", "note": "[Doxorubicin]", "values": [
      {"measurement": "IC50", "result": "34.9 ± 5.21", "unit": "µg/mL"}
    ]}
  ]
}
